The nature of data set [1]: TLC-based radiometric assay of product formation by 2-PS, CHS and CHS mutants. In kind it is biochemical. Particulars: for polyketide product formed: TLC, triple mutant and 2-PS confirmed by LC/MS; for starter molecule accepted: p-coumaroyl-CoA or acetyl-CoA as starter. From the text: Comparison of the initiation/elongation cavities of 2-PS and CHS reveal four amino acid differences. In 2-PS, Leu202, Met259, Leu261, and Ile343 replace Thr197, Ile254, Gly256, and Ser338, respectively, of CHS. These four substitutions reduce cavity volume from 923 Å^3 in CHS to 274 Å^3 in 2-PS. A model of methylpyrone in the 2-PS cavity, based on the position of acetoacetyl-CoA, emphasizes the volume change compared to the CHS-naringenin complex (Accession No. 1CGK). Leu202 and Ile343 occlude the portion of the 2-PS cavity corresponding to the coumaroyl-binding site of CHS. Replacement of Gly256 in CHS by Leu261 in 2-PS severely reduces the size of the active site cavity. Substitution of Met259 in 2-PS for Ile254 in CHS produces a modest alteration in cavity volume. To examine the functional importance of these amino acid differences, the initiation/elongation cavity of CHS was altered by mutagenesis to resemble that of 2-PS. The resulting mutant proteins were screened for activity using either p-coumaroyl-CoA or acetyl-CoA as starter molecules. Activities of 2-PS, CHS, and the CHS mutants were determined by monitoring product formation using a TLC-based radiometric assay. Assay conditions were 100 mM Hepes (pH 7.0), 30 μM starter-CoA (either p-coumaroyl-CoA or acetyl-CoA), and 60 μM [^14C]-malonyl-CoA (50,000 cpm) in 100 μl at 25° C. Reactions were quenched with 5% acetic acid, extracted with ethyl acetate, and applied to TLC plates and developed. Due to the spontaneous cyclization of chalcone into the flavanone naringenin, activities of CHS are referenced to naringenin formation.
The x-ray crystal structures of 2-PS and CHS imply that the size of the active site cavity limits polyketide length and modulates folding of the polyketide chain. […] Since the T197L, G256L, and S338I mutants altered product formation, a CHS triple mutant was generated. […] LC/MS/MS analysis was performed by the Mass Spectroscopy facility of the Scripps Research Institute. Scaled-up assays (2 ml reaction volume) with the CHS T197L/G256L/S338I mutant and 2-PS were performed. Extracts were analyzed on a Hewlett-Packard HP1100 MSD single quadrupole mass spectrometer coupled to a ZorbaxSB-C18 column (5 μm, 2.1 mm×150 mm). HPLC conditions were as follows: gradient system from 0 to 100% methanol in water (each containing 0.2% acetic acid) within 10 min; flow rate 0.25 ml min^−1. LC/MS/MS data from both reactions were identical: 6-methyl-4-hydroxy-2pyrone, Rt=5.068 min; [M-H]^−125 (41); [M-H—CO2]^−[…] (100). The numbers show m/z values with relative intensities in parenthesis. The observed fragmentation matches previously published data.

Data set [2] concerns CHS. Particulars: covalently modifies Cys164; Lanz et al. 1991; cited from earlier work.
Data set [3] is described as follows: Functional assay of malonyl-CoA decarboxylation by the C164S mutant. It counts as biochemical. Particulars: determined crystallographically and confirmed by a functional assay. From the text: Asn336 appears to play a crucial role in the decarboxylation reaction. […] In the hexanoyl-CoA complex, the side chain amide of Asn336 provides a hydrogen bond to the carbonyl oxygen of the thioester. This interaction would stabilize the enolate anion resulting from decarboxylation of malonyl-CoA (see FIG. 6). At the same time, the lack of formal positive charge at Asn336 may preserve the partial carbanion character of this resonance-stabilized anion, and thus the nucleophilicity of the carbanion form.

[4] abbreviates: 30 μM starter-CoA, 60 μM [14C]-malonyl-CoA, pH 7.0, 25° C.

“Also recorded” adds a separate entry of the source.

With “2-PS: 2-Pyrone synthase from Gerbera hybrida, expressed in E. coli”, in data set [1], the polyketide product formed entry is reported as “produces the triketide methylpyrone” and the starter molecule accepted result is listed as “accepts acetyl-CoA but does not use p-coumaroyl-CoA”.

For the molecule `C/C=C/C/C=C/CCC(=O)[C@H]1O[C@H]1C(N)=O` [Cerulenin], the “inhibition of CHS” value in data set [2] is listed as “potent irreversible inhibitor”.

On to “CHS I254M: CHS mutant I254M of SEQ ID NO:1”, for which, in data set [1], the “specific activity compared with wild-type enzyme” value is given as “functionally comparable to wild-type enzyme with a modest reduction in specific activity” and the polyketide product formed entry is “yields chalcone”.

G256L: CHS mutant G256L of SEQ ID NO:1: in data set [1] (setting [4]), the “preference for acetyl-CoA over coumaroyl-CoA as starter molecule” value worked out at 3 fold. Also, in data set [1], the polyketide product formed entry was “do not form chalcone”.

Regarding S338I: CHS mutant S338I of SEQ ID NO:1, in data set [1] (setting [4]), the “preference for p-coumaroyl-CoA versus acetyl-CoA as starter molecule” value stood at 3 fold. Further, the polyketide product formed entry in data set [1] is recorded as “do not form chalcone; also recorded: form a distinct product”.

Regarding “T197L/G256L/S338I: CHS triple mutant with active site sterically analogous to 2-pyrone synthase”, in data set [1], the polyketide product formed result is given as “produces only methylpyrone” and the starter molecule accepted result was “only accepts acetyl-CoA (or malonyl-CoA)”.

With T197L: CHS mutant T197L of SEQ ID NO:1, in data set [1] (setting [4]), the “preference for p-coumaroyl-CoA versus acetyl-CoA as starter molecule” value was 10 fold. The polyketide product formed result in data set [1] is on record as “do not form chalcone; also recorded: form a distinct product”.

B1: C164S: CHS mutant C164S of SEQ ID NO:1 (protein, UniProt P30074 1-389, looked up, variant C164S)
Chalcone synthase 2: MVSVSEIRKAQRAEGPATILAIGTANPANCVEQSTYPDFYFKITNSEHKTELKEKFQRMCDKSMIKRRYMYLTEEILKENPNVCEYMAPSLDARQDMVVVEVPRLGKEAAVKAIKEWGQPKSKITHLIVCTTSGVDMPGADYQLTKLLGLRPYVKRYMMYQQGSFAGGTVLRLAKDLAENNKGARVLVVCSEVTAVTFRGPSDTHLDSLVGQALFGDGAAALIVGSDPVPEIEKPIFEMVWTAQTIAPDSEGAIDGHLREAGLTFHLLKDVPGIVSKNITKALVEAFEPLGISDYNSIFWIAHPGGPAILDQVEQKLALKPEKMNATREVLSEYGNMSSACVLFILDEMRKKSTQNGLKTTGEGLEWGVLFGFGPGLTIETVVLRSVAI
Regarding B1, the “decarboxylation of malonyl-CoA / residual catalytic activity” value in data set [3] was “retains limited catalytic activity; also recorded: produces acetyl-CoA”.
